Reference: US20260225997A1, “IONIZABLE AMINE LIPIDS” (Intellia Therapeutics, Inc., priority 2018, published 2026)
Where two headings read alike, the source gives them in different places.

How the values were obtained:
TTR [1] = assay: TTR editing in mouse liver by NGS after i.v. LNP delivery of Cas9 mRNA and sgRNA; type: in vivo; settings: CD-1 female mice; for % Editing (TTR, liver): Example 55: 0.1 mpk i.v.
Method: Preparations of various LNP compositions were prepared with amine lipids. In assays for percent liver editing in mice, Cas9 mRNA and chemically modified sgRNA were formulated in LNPs, at either a 1:1 w/w ratio or a 1:2 w/w ratio. LNPs are formulated with a composition of a given ionizable lipid (e.g. an amine lipid), DSPC, cholesterol, and PEG-2k-DMG, with a 6.0 N:P ratio.
(§1) CD-1 female mice, ranging from 6-10 weeks of age were used in each study. Animals were weighed and grouped according to body weight for preparing dosing solutions based on group average weight. LNPs were dosed via the lateral tail vein in a volume of 0.2 mL per animal (approximately 10 mL per kilogram body weight). The animals were periodically observed post dose for adverse effects for at least 24 hours post dose. Animals were euthanized at 6 or 7 days by exsanguination via cardiac puncture under isoflurane anesthesia. Blood was collected into serum separator tubes or into tubes containing buffered sodium citrate for plasma as described herein. For studies involving in vivo editing, liver tissue was collected from each animal for DNA extraction and analysis.
Cohorts of mice were measured for liver editing by Next-Generation Sequencing (NGS).
In brief, to quantitatively determine the efficiency of editing at the target location in the genome, genomic DNA was isolated and deep sequencing was utilized to identify the presence of insertions and deletions introduced by gene editing.
PCR primers were designed around the target site (e.g., B2M), and the genomic area of interest was amplified. Additional PCR was performed according to the manufacturer's protocols (Illumina) to add the necessary chemistry for sequencing. The amplicons were sequenced on an Illumina MiSeq instrument. The reads were aligned to the […] after eliminating those having low quality scores. The resulting files containing the reads were mapped to the reference genome (BAM files), where reads that overlapped the target region of interest were selected and the number of wild type reads versus the number of reads which contain an insertion, substitution, or deletion was calculated.
The editing percentage (e.g., the “editing efficiency” or “percent editing”) is defined as the total number of sequence reads with insertions or deletions over the total number of sequence reads, including wild type.
CD-1 female mice were dosed i.v. at 0.1 mpk or 0.3 mpk. At 6 days post-dose, animals were sacrificed. For animals dosed with G282 targeting TTR, blood and the liver were collected and serum TTR and editing were measured. For animals dosed with G650 targeting B2M, liver was collected and editing was measured.

[2] = pKa measurement of unformulated amine lipid (fluorescence, method of Jayaraman et al.); type: physicochemical; settings: 100 μM in 0.1 M phosphate buffer pH 4.5-9.0
Method: The pKa of each amine lipid was determined according to the method in Jayaraman, et al. (Angewandte Chemie, 2012) with the following adaptations. […] Lipid was diluted to 100 μM in 0.1 M phosphate buffer (Boston Bioproducts) where the pH ranged from 4.5-9.0. Fluorescence intensity was measured using excitation and emission wavelengths of 321 nm and 448 nm.

TTR [3] = assay: Transthyretin (TTR) ELISA analysis of mouse serum after LNP dosing; type: in vivo; settings: for response vs control in vivo at 0.1 mg/kg / response vs control in vivo at 0.03 mg/kg: read-out: Serum TTR % TSS
Method: as §1
CD-1 female mice were dosed i.v. at 0.1 mpk or 0.3 mpk. […] For animals dosed with G282 targeting TTR, blood and the liver were collected and serum TTR and editing were measured. For animals dosed with G650 targeting B2M, liver was collected and editing was measured.
Blood was collected and the serum was isolated as indicated. The total mouse TTR serum levels were determined using a Mouse Prealbumin (Transthyretin) ELISA Kit (Aviva Systems Biology, Cat. OKIA00111). Briefly, sera were serial diluted with kit sample diluent to a final dilution of 10,000-fold for 0.1 mpk dose and 2,500-fold for 0.3 mpk. This diluted sample was then added to the ELISA plates and the assay was then carried out according to directions.

[4] = Example 55: 0.1 mpk i.v., 7 days post-dose, G282 1:1
[5] = Example 61: 0.1 mpk i.v., 7 days post-dose, G282 1:1
[6] = Mus musculus, iv, 168 h, Example 61: 0.1 mpk i.v., 7 days post-dose, G282 1:1
[7] = Example 59: 0.1 mpk i.v., 7 days post-dose, G282 1:1
[8] = Example 62: 0.03 mpk i.v., 7 days post-dose, G282 1:2
[9] = Example 62: 0.1 mpk i.v., 7 days post-dose, G282 1:2
[10] = Example 64: Dose 0.03 mpk (table) i.v., 7 days post-dose, G282 1:1
[11] = Mus musculus, iv, 168 h, Example 62: 0.03 mpk i.v., 7 days post-dose, G282 1:2
[12] = Mus musculus, iv, 168 h, Example 62: 0.1 mpk i.v., 7 days post-dose, G282 1:2
[13] = Example 58: 0.1 mpk i.v., 6 days post-dose, G282 1:1
[14] = Mus musculus, iv, 144 h, Example 58: 0.1 mpk i.v., 6 days post-dose, G282 1:1

## CCCCCCCCCOC(=O)CCCCCCCN(CCO)CCCCCCCC(OCCCCCCC)OCCCCCCC [Compound 7, nonyl 8-((8,8-bis(heptyloxy)octyl)(2-hydroxyethyl)amino)octanoate]
TTR [1]; 7 days post-dose, G282 1:1
  % Editing (TTR, liver): 50%
[2]
  pKa: 6.16
TTR [3]; [4]
  Serum TTR: 234 µg/mL
  Serum TTR (% TSS): 21 % TSS

## CCCCCCCCCOC(=O)CCCCCCCN(CCO)CCCCCCCC(OCCCCCC)OCCCCCC [Compound 8, nonyl 8-((8,8-bis(hexyloxy)octyl)(2-hydroxyethyl)amino)octanoate]
TTR [1]; 7 days post-dose, G282 1:1
  % Editing (TTR, liver): 43%
[2]
  pKa: 6.37
TTR [3]; [4]
  Serum TTR: 387 µg/mL
  Serum TTR (% TSS): 34 % TSS

## CCCCCCCCCOC(=O)CCCCCCCN(CCO)CCCCCCCCC(OCCCCCCCC)OCCCCCCCC [Compound 9, nonyl 8-((9,9-bis(octyloxy)nonyl)(2-hydroxyethyl)amino octanoate]
TTR [1]; [5]
  Editing Mean % Indel: 52.1%
[2]
  pKa: 6.12
TTR [3]; [5]
  Serum TTR: 218 µg/mL
TTR [3]; [6]
  response vs control in vivo at 0.1 mg/kg: 17%

## CCCCCCCCCOC(=O)CCCCCCCN(CCO)CCCCCCC(OCCCCCCCC)OCCCCCCCC [Compound 10, nonyl 8-((7,7-bis(octyloxy)heptyl)(2-hydroxyethyl)amino)octanoate]
TTR [1]; 7 days post-dose, G282 1:1
  % Editing (TTR, liver): 50%
TTR [1]; [7]
  Editing Mean % Indel: 60.1%
TTR [1]; [5]
  Editing Mean % Indel: 47.2%
TTR [1]; [8]
  Editing Mean % Indel: 15.6%
TTR [1]; [9]
  Editing Mean % Indel: 51.3%
TTR [1]; [10]
  Editing Mean % Indel: 27.2%
[2]
  pKa: 6.05
TTR [3]; [4]
  Serum TTR: 206 µg/mL
  Serum TTR (% TSS): 18 % TSS
TTR [3]; [7]
  Serum TTR: 80 µg/mL
TTR [3]; [5]
  Serum TTR: 330 µg/mL
TTR [3]; [8]
  Serum TTR: 424 µg/mL
TTR [3]; [9]
  Serum TTR: 179 µg/mL
TTR [3]; [10]
  Serum TTR: 409.2 µg/mL
TTR [3]; Mus musculus, iv, 168 h, Example 59: 0.1 mpk i.v., 7 days post-dose, G282 1:1
  response vs control in vivo at 0.1 mg/kg: 9%
TTR [3]; [6]
  response vs control in vivo at 0.1 mg/kg: 26%
TTR [3]; [11]
  response vs control in vivo at 0.03 mg/kg: 67%
TTR [3]; [12]
  response vs control in vivo at 0.1 mg/kg: 28%
TTR [3]; Mus musculus, iv, 168 h, Example 64: Dose 0.03 mpk (table) i.v., 7 days post-dose, G282 1:1, read-out: Serum TTR (% KD)
  inhibition in vivo at 0.03 mg/kg: 28.5%

## CCCCCCCCCCOC(=O)CCCCCCN(CCO)CCCCCCCC(OCCCCCCCC)OCCCCCCCC [Compound 12, decyl 7-((8,8-bis(octyloxy)octyl)(2-hydroxyethyl)amino)heptanoate]
TTR [1]; [13]
  Editing Mean % Indel: 33.0%
[2]
  pKa: 6.38
TTR [3]; [13]
  Serum TTR: 490 µg/mL
TTR [3]; [14]
  response vs control in vivo at 0.1 mg/kg: 50%

## CCCCCCCCCCCCOC(=O)CCCCN(CCO)CCCCCCCC(OCCCCCCCC)OCCCCCCCC [Compound 14, dodecyl 5-((8,8-bis(octyloxy)octyl)(2-hydroxyethyl)amino)pentanoate]
TTR [1]; [13]
  Editing Mean % Indel: 12.1%
[2]
  pKa: 6.46
TTR [3]; [13]
  Serum TTR: 928 µg/mL
TTR [3]; [14]
  response vs control in vivo at 0.1 mg/kg: 94%

## CCCCCCCCOC(CCCCCCCN(CCO)CCCCCCCC(=O)OCCCCCCC)OCCCCCCCC [Compound 15, heptyl 8-((8,8-bis(octyloxy)octyl)(2-hydroxyethyl)amino)octanoate]
TTR [1]; [13]
  Editing Mean % Indel: 50.3%
TTR [1]; [8]
  Editing Mean % Indel: 16.4%
TTR [1]; [9]
  Editing Mean % Indel: 57.4%
[2]
  pKa: 6.34
TTR [3]; [13]
  Serum TTR: 179 µg/mL
TTR [3]; [8]
  Serum TTR: 548 µg/mL
TTR [3]; [9]
  Serum TTR: 180 µg/mL
TTR [3]; [14]
  response vs control in vivo at 0.1 mg/kg: 18%
TTR [3]; [11]
  response vs control in vivo at 0.03 mg/kg: 86%
TTR [3]; [12]
  response vs control in vivo at 0.1 mg/kg: 28%

## CCCCCCCCOC(CCCCCCCN(CCO)CCCCCCCC(=O)OC(C)CCCCCCCC)OCCCCCCCC (stereo not drawn) [Compound 21, decan-2-yl 8-((8,8-bis(octyloxy)octyl)(2-hydroxyethyl)amino)octanoate]
[2]
  pKa: 5.99

## CCCCCCCCOC(CCCCCCCN(CCO)CCCCCCCCCCOC(=O)CCCCCC)OCCCCCCCC [Compound 24, 10-((8,8-bis(octyloxy)octyl)(2-hydroxyethyl)amino)decyl heptanoate]
[2]
  pKa: 5.95

## CCCCCCCCOC(CCCCCCN(CCO)CCCCCCCC(=O)OCCCCCCC)OCCCCCCCC [Compound 31, heptyl 8-((7,7-bis(octyloxy)heptyl)(2-hydroxyethyl)amino)octanoate]
[2]
  pKa: 6.47

## CCCCCCCCOC(CCCCCCN(CCO)CCCCCCCC(=O)OC(C)CCCCCC)OCCCCCCCC (stereo not drawn) [Compound 32, octan-2-yl 8-((7,7-bis(octyloxy)heptyl)(2-hydroxyethyl)amino)octanoate]
[2]
  pKa: 6.36

## CCCCCCCCOC(CCCCCCN(CCO)CCCCCCCC(=O)OC(CC)CCCCCC)OCCCCCCCC (stereo not drawn) [Compound 33, nonan-3-yl 8-((7,7-bis(octyloxy)heptyl)(2-hydroxyethyl)amino)octanoate]
[2]
  pKa: 6.33

## CCCCCCCCOC(CCCCCCN(CCO)CCCCCCCC(=O)OCCCCC)OCCCCCCCC [Compound 34, pentyl 8-((7,7-bis(octyloxy)heptyl)(2-hydroxyethyl)amino)octanoate]
[2]
  pKa: 6.47

## CCCCCCCCOC(CCCCCCN(CCO)CCCCCCCC(=O)OC(CC)CCCC)OCCCCCCCC (stereo not drawn) [Compound 35, heptan-3-yl 8-((7,7-bis(octyloxy)heptyl)(2-hydroxyethyl)amino)octanoate]
[2]
  pKa: 6.37

## CCCCCCCCCOC(=O)CCCCCCCN(CCN)CCCCCCC(OCCCCCCCC)OCCCCCCCC [Compound 36, nonyl 8-((2-aminoethyl)(7,7-bis(octyloxy)heptyl)amino)octanoate]
[2]
  pKa: 7.2

## CCCCCCCCCOC(=O)CCCCCCCN(CCCO)CCCCCCC(OCCCCCCCC)OCCCCCCCC [Compound 37, nonyl 8-((7,7-bis(octyloxy)heptyl)(3-hydroxypropyl)amino)octanoate]
[2]
  pKa: 6.3

## CCCCCCCCCOC(=O)CCCCCCCN(CCCN)CCCCCCC(OCCCCCCCC)OCCCCCCCC [Compound 38, nonyl 8-((3-aminopropyl)(7,7-bis(octyloxy)heptyl)amino)octanoate]
[2]
  pKa: 7.81

## CCCCCCCCCOC(=O)CCCCCCCN(CCCCCCC(OCCCCCCCC)OCCCCCCCC)CCNS(C)(=O)=O [Compound 47, nonyl 8-((7,7-bis(octyloxy)heptyl)(2-(methylsulfonamido)ethyl)amino)octanoate]
[2]
  pKa: 6.93

## CCCCCCCCCOC(=O)CCCCCCCN(CCCCCCC(OCCCCCCCC)OCCCCCCCC)CCCNS(C)(=O)=O [Compound 48, nonyl 8-((7,7-bis(octyloxy)heptyl)(3-(methylsulfonamido)propyl)amino)octanoate]
[2]
  pKa: 7.61

## CCCCCCCCCOC(=O)CCCCCCCN(CCCCCCC(OCCCCCCCC)OCCCCCCCC)CCOC(C)=O [Compound 49, nonyl 8-((2-acetoxyethyl)(7,7-bis(octyloxy)heptyl)amino)octanoate]
[2]
  pKa: 5.32

## CCCCCCCCCOC(=O)CCCCCCCN(CCCCCCC(OCCCCCCCC)OCCCCCCCC)CCCOC(C)=O [Compound 50, nonyl 8-((3-acetoxypropyl)(7,7-bis(octyloxy)heptyl)amino)octanoate]
[2]
  pKa: 5.45
